Target: Protein cereblon (Homo sapiens, UniProt Q96SW2)
Test: Fluorescent Polarization Assay
Procedure: Compound activity was monitored in a fluorescence polarization (FP) homogeneous assay using 1-[5-({2-[2-(2-{[2-(2,6-dioxopiperidin-3-yl)-1,3-dioxo-2,3-dihydro-1H-isoindol-4-yl]oxy}acetamido)ethoxy]ethyl}carbamoyl)pentyl]-3,3-dimethyl-2-[(1E,3E)-5-[(2E)-1,3,3-trimethyl-5-sulfo-2,3-dihydro-1H-indol-2-ylidene]penta-1,3-dien-1-yl]-3H-indol-1-ium-5-sulfonate as a fluorescent probe. Unless otherwise stated, all reagents were purchased from Sigma Aldrich. Enzymatic reactions were conducted in Perkin-Elmer Black 384 well ProxiPlate Plus (catalogue no. 6008269) in 10 sL total volume. Full length wild-type cereblon CRBN (80.0 nM, 10 sL) was incubated in assay buffer containing 20 mM HEPES (pH 8.0), […], 0.5 mM TCEP and 0.05% Tween 20 in the presence or absence of compound (300 nL). Inhibitors were stored as 10 mM DMSO stocks in an inert environment (low humidity, dark, low oxygen, room temperature) using the Storage Pod System. Compounds and DMSO were dispensed using the Echo E5XX (Labcyte Inc. USA) to give concentrations from 300 to 0.937 or 3000 to 9.3 nM in a 12 data point curve. […] Following incubation at room temperature for 30 min, the assay was initiated by dispensing the probe to a final concentration of 5 nM (2.5 nL of a 20 μM stock) using the Echo E5XX. FP was measured after a period of 12 hours using a Pherastar plate reader (BMG Labtech, Germany) exciting at 590 nm and measuring the amount of parallel and perpendicular light at 675 nm. The FP signal was subsequently normalized to the no-compound control (i.e., DMSO). Analysis and IC50 values were derived using Dotmatics (Dotmatics UK) software.

Chain of Protein cereblon (Q96SW2 whole entry): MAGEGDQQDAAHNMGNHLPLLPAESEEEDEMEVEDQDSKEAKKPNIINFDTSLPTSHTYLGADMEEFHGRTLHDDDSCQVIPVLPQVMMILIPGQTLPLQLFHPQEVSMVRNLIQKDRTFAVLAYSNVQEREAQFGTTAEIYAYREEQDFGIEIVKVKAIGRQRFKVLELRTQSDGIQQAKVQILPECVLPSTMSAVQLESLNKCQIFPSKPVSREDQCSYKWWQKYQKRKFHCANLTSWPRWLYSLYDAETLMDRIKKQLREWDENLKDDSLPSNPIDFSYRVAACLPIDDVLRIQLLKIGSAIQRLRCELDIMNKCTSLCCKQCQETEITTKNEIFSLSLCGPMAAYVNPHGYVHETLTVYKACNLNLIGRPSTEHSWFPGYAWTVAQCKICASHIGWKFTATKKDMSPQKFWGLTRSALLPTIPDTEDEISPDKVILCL

SMILES	IC50
O=C1CCC(N2Cc3c(F)cc(COC(=O)Nc4cc(F)c(F)c(Cl)c4)cc3C2=O)C(=O)N1 (centres undefined) [US20240051936, Compound 61]	> 1900 nM
O=C1CCC(N2Cc3c(F)cc(COC(=O)Nc4cc(F)cc(Cl)c4)cc3C2=O)C(=O)N1 (centres undefined) [US20240051936, Compound 33]	> 1900 nM
O=C1CCC(N2Cc3c(F)cc(COC(=O)Nc4ccc(F)c(Cl)c4)cc3C2=O)C(=O)N1 (centres undefined) [US20240051936, Compound 32]	> 1900 nM
O=C1CCC(N2Cc3c(F)cc(COC(=O)Nc4cc(F)c(-c5ccccc5)c(F)c4)cc3C2=O)C(=O)N1 (centres undefined) [US20240051936, Compound 30]	> 1900 nM

Other lines, results leading:

IC50	SMILES
> 1900 nM	COc1c(COC(=O)Nc2ccc(C)c(Cl)c2)ccc2c1C(=O)N(C1CCC(=O)NC1=O)C2 (centres undefined) [US20240051936, Compound 70]
> 1900 nM	O=C1CCC(N2Cc3c(F)cc(COC(=O)Nc4ccc(-c5ccccc5F)c(F)c4)cc3C2=O)C(=O)N1 (centres undefined) [US20240051936, Compound 29]
> 1900 nM	O=C1CCC(N2Cc3c(F)cc(COC(=O)Nc4ccc(F)c(OC(F)(F)F)c4)cc3C2=O)C(=O)N1 (centres undefined) [US20240051936, Compound 14]
> 1900 nM	O=C1CCC(N2Cc3c(F)cc(COC(=O)Nc4ccc(C5CCC5)cc4)cc3C2=O)C(=O)N1 (centres undefined) [US20240051936, Compound 22]
> 1900 nM	CC(C)(C)c1ccc(NC(=O)OCc2cc(F)c3c(c2)C(=O)N(C2CCC(=O)NC2=O)C3)cc1 (centres undefined) [US20240051936, Compound 10]

Reference: BindingDB's records for patent US20240051936 (Monte Rosa Therapeutics, 2024)
